From patent US20220106301A1, “ACETAMIDO-PHENYLBENZAMIDE DERIVATIVES AND METHODS OF USING THE SAME” (Athenex, Inc., priority 2020, published 2022)

Biological target: T1, P-glycoprotein (Homo sapiens, UniProt P08183)
T1 construct: A P-glycoprotein overexpressing cell line derived from the human uterine sarcoma cell line MES-SA; host or cells: MES-SA/DX5 (human uterine sarcoma, doxorubicin-selected)
Experiment: Determination of P-glycoprotein inhibitory activity (MTT cell growth, MES-SA/DX5 cells with docetaxel or paclitaxel)
Assay type: cell-based
Details: compound + 100 nM docetaxel or 200 nM paclitaxel, 3 days
Method: A P-glycoprotein overexpressing cell line derived from the human uterine sarcoma cell line MES-SA (i.e., MES-SA/DX5 cells (ATCC)) was seeded by stepwise exposures to increasing concentrations of doxorubicin, in a 96-well plate at 6,500 cells/100 μL media (McCoy's 5A+10% FBS) in each well. The cells were incubated overnight at 37° C., 5% CO2. […] DMSO was used as a negative control and known P-glycoprotein inhibitor, encequidar methane sulfonic acid monohydrate (HM30181A), was used as a positive control. […] Treated cells were incubated for 3 days at 37° C., 5% CO2.
To value (reflecting the starting number of cells upon Compound treatment) of 3 wells of cells was determined by performing the following steps 1-4 as described below.
1. 10 μL MTT (5 mg/mL in PBS) was added to each well and incubated for 1.5 hours at 37° C., 5% CO2.
2. Culture media was removed and 100 μL of DMSO was added to each well.
3. The plate was gently shook until all purple MTT formazan crystals were dissolved. OD540 was then measured using microplate reader.
4. Cell growth percentage was calculated with the following equation:
Cell growth percentage=(T−T0)/(C−T0)×100%,

T1 sequence (P08183 whole entry): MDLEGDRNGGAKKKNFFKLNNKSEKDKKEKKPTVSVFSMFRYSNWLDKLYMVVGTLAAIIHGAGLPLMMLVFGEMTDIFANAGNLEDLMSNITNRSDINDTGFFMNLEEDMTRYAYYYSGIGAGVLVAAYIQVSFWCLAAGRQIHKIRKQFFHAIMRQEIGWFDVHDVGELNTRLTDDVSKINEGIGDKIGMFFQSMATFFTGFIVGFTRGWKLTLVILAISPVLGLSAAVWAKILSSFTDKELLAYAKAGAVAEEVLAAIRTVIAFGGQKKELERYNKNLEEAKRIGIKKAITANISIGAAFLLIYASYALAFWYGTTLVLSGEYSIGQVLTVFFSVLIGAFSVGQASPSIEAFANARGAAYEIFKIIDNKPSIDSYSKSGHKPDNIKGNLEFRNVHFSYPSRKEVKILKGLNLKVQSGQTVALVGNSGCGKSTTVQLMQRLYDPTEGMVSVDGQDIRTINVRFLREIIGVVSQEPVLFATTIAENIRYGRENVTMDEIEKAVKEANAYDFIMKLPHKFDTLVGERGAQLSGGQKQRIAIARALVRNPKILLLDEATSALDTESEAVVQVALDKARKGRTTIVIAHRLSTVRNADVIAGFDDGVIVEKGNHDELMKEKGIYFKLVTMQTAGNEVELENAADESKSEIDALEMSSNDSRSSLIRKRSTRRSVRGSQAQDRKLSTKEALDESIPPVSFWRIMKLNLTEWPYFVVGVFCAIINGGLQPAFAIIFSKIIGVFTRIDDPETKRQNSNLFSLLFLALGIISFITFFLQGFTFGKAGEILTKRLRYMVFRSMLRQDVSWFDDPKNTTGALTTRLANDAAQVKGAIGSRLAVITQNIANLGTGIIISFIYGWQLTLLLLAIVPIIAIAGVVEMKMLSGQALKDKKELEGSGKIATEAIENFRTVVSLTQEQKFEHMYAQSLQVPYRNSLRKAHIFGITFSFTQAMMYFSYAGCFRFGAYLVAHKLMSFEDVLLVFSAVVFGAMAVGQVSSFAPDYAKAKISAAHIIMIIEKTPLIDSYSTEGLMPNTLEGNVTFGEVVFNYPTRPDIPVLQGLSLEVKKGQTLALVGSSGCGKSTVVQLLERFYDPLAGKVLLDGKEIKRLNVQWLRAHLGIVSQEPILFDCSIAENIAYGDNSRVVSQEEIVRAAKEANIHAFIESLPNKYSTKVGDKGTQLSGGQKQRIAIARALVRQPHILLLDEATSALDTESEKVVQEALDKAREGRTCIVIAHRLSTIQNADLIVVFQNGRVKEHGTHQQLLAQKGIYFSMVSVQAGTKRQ

SMILES | EC50 [nM]
COc1cc2c(cc1OC)CN(CCc1ccc(-n3nnc(-c4cc(OC)c(OC)cc4NC(=O)c4cc(=O)c5ccccc5o4)n3)cc1)CC2.CS(=O)(=O)O.O [encequidar methane sulfonic acid monohydrate] | < 100

Biological target: CYP3A4 (Homo sapiens, UniProt P08684)
Sequence (P08684 whole entry): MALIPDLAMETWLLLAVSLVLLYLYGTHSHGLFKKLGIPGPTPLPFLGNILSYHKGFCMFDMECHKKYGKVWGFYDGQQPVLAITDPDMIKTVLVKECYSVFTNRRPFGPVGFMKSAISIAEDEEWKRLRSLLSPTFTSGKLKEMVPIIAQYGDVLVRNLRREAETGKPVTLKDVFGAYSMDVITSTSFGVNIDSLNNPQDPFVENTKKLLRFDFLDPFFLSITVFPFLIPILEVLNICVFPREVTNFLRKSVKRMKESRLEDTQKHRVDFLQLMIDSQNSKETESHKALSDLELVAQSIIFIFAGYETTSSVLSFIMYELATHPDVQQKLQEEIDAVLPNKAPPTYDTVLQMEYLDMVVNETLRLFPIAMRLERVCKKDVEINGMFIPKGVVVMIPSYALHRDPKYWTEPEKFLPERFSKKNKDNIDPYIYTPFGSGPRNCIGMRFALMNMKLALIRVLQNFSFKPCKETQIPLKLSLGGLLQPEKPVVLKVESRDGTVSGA
Experiment: Determination of CYP3A4 inhibitory activity (human liver microsome, Luciferin-IPA)
Details: CYP3A4 IC50 (nM), 37° C. 11 minutes
Summary of the method: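 Final compound concentrations 37, 111, 333, 1000 and 3000 nM; reaction at 37° C for 11 min, then luciferin detection reagent 5 min at room temperature with luminescence read-out. IC50 from nonlinear regression of dose-response.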

SMILES | IC50 [nM]
COc1cc(NC(=O)c2cnc3ccccc3n2)c(C(=O)Nc2ccc(CCN(Cc3cccc(-n4ccnc4)c3)Cc3ccc4c(cnn4C)c3)cc2)cc1OC [Compound 30] | 500 to 1000
COCCOc1cncc(CN(CCc2ccc(NC(=O)c3cc(OC)c(OC)cc3NC(=O)c3cc(=O)c4ccccc4o3)cc2)Cc2ccc3c(c2)c(C)nn3C)c1 [Compound 65] | 100 to 250
COc1cc(NC(=O)c2cc(=O)c3ccccc3o2)c(C(=O)Nc2ccc(CCN(Cc3cccc(-n4ccnc4)c3)Cc3ccc4c(c3)nnn4C)cc2)cc1OC [Compound 50] | 100 to 250
COC(=O)c1ccc(C(=O)Nc2ccc(CCN(Cc3ccc4c(cnn4C)c3)Cc3ccc4c(cnn4C)c3)cc2)c(NC(=O)c2cc(=O)c3ccccc3o2)c1 [Compound 257] | > 1000
COc1cc(NC(=O)c2cc(=O)c3ccccc3o2)c(C(=O)NCc2ccc(CN(Cc3ccc(-n4ccnc4)cc3)Cc3ccc4c(cnn4C)c3)cc2)cc1OC [Compound 237] | 100 to 250
COc1cc(NC(=O)c2cc(=O)c3ccccc3o2)c(C(=O)Nc2ccc(CCN(Cc3cncc(O)c3)Cc3ccc4c(cnn4C)c3)cc2)cc1OC [Compound 223] | 100 to 250
CCN(CCc1ccc(NC(=O)c2cc(OC)c(OC)cc2NC(=O)c2cc(=O)c3ccccc3o2)cc1)Cc1ccc(OCCn2ccnc2)c(OC)c1 [Compound 134] | 100 to 250
COCCOc1cncc(CN(CCc2ccc(NC(=O)c3cc(OC)c(OC)cc3NC(=O)c3cc(=O)c4ccccc4o3)cc2)Cc2ccc3c(cnn3C)c2)c1 [Compound 56] | 250 to 500
COc1cc(NC(=O)c2cnc3ccccc3n2)c(C(=O)Nc2ccc(CCN(Cc3ccc4cnn(C)c4c3)Cc3ccc4cnn(C)c4c3)cc2)cc1OC [Compound 168] | > 1000
COc1cc(NC(=O)c2cc(=O)c3ccccc3o2)c(C(=O)Nc2ccc(CCN(Cc3ccc4c(cnn4C)c3)C(=O)OC(C)(C)C)cc2)cc1OC [Compound 231] | > 1000
COc1cc(NC(=O)c2cc(=O)c3ccccc3o2)c(C(=O)Nc2ccc(CCN(Cc3cncc(Cl)c3)Cc3ccc4c(cnn4C)c3)cc2)cc1OC [Compound 227] | 500 to 1000
CCN(CCc1ccc(NC(=O)c2cc(OC)c(OC)cc2NC(=O)c2cc(=O)c3ccccc3o2)cc1)Cc1cccc(OCCn2ccnc2)c1 [Compound 130] | < 100
Cn1ncc2cc(CN(CCc3ccc(NC(=O)c4ccc(C(=O)O)cc4NC(=O)c4cc(=O)c5ccccc5o4)cc3)Cc3ccc4c(cnn4C)c3)ccc21 [Compound 267] | > 1000
Cn1ncc2cc(CNCCc3ccc(NC(=O)c4ccc(C(=O)O)cc4NC(=O)c4cc(=O)c5ccccc5o4)cc3)ccc21 [Compound 256] | > 1000
COc1ccc(CN(CCc2ccc(NC(=O)c3ccc(C(=O)OCc4cccnc4)cc3NC(=O)c3cc(=O)c4ccccc4o3)cc2)Cc2ccc(OC)c(OC)c2)cc1OC [Compound 265] | > 1000
COc1cc(NC(=O)c2cc(=O)c3ccccc3o2)c(C(=O)Nc2ccc(CCN(Cc3cccc(OC[C@@H]4CO[C@@](Cn5ccnc5)(c5ccc(Cl)cc5Cl)O4)c3)Cc3ccc4c(cnn4C)c3)cc2)cc1OC [Compound 242] | 250 to 500
CCN(CCc1ccc(NC(=O)c2cc(OC)c(OC)cc2NC(=O)c2cc(=O)c3ccccc3o2)cc1)Cc1ccc2c(c1)n(C)c(=O)n2C [Compound 161] | > 1000
COc1cc(NC(=O)c2cc(=O)c3ccccc3o2)c(C(=O)Nc2ccc(CCN(Cc3ccc(-c4ccncc4)cc3)Cc3ccc4cnn(C)c4c3)cc2)cc1OC [Compound 187] | > 1000
COc1cc2c(cc1OC)CN(CCc1ccc(NC(=O)c3ccc(C(=O)OCc4ccncc4)cc3NC(=O)c3cc(=O)c4ccccc4o3)cc1)CC2 [Compound 81] | > 1000

SMILES | IC50 [nM]
COc1cc(NC(=O)c2cc(=O)c3ccccc3o2)c(C(=O)Nc2ccc(CCN(C)C(=O)CCc3ccncc3)cc2)cc1OC [Compound 120] | 100 to 250
COc1cc(NC(=O)c2cc(=O)c3ccccc3o2)c(C(=O)Nc2ccc(CCN3CCc4cnccc4C3)cc2)cc1OC [Compound 83] | < 100
COc1cc(NC(=O)c2cc(=O)c3ccccc3o2)c(C(=O)Nc2ccc(CCN(C)C(=O)c3cccc(-c4cccnc4)c3)cc2)cc1OC [Compound 124] | 250 to 500
COc1cc(NC(=O)c2cnc3ccccc3n2)c(C(=O)Nc2ccc(CCN(Cc3ccc4c(cnn4C)c3)Cc3ccc(C)c4ncccc34)cc2)cc1OC [Compound 173] | > 1000
COc1cc(NC(=O)c2cc(=O)c3ccccc3o2)c(C(=O)Nc2ccc(CCN(CCN3CCOCC3)Cc3ccc4c(cnn4C)c3)cc2)cc1OC [Compound 149] | > 1000
COc1cc(NC(=O)c2cc(=O)c3ccccc3o2)c(C(=O)Nc2ccc(CCN(Cc3ccc4c(c3)c(C)nn4C)Cc3ccc4c(c3)c(C)nn4C)cc2)cc1OC [Compound 180] | > 1000
COc1cc(NC(=O)c2cc(=O)c3ccccc3o2)c(C(=O)Nc2ccc(CCN(Cc3cncc(C)c3)Cc3ccc4c(c3)c(C)nn4C)cc2)cc1OC [Compound 64] | 100 to 250
COc1cc(NC(=O)c2cc(=O)c3ccccc3o2)c(C(=O)Nc2ccc(CCN(Cc3ccc4c(cnn4C)c3)Cc3cncs3)cc2)cc1OC [Compound 140] | > 1000
CCN(CCc1ccc(NC(=O)c2cc(OC)c(OC)cc2NC(=O)c2cc(=O)c3ccccc3o2)cc1)Cc1ccc(OC)c(OCCn2ccnc2)c1 [Compound 132] | 100 to 250
COc1cc(NC(=O)c2cc(=O)c3ccccc3o2)c(C(=O)Nc2ccc(CCN(C)Cc3ccc(-n4ccnc4)c(OC)c3)cc2)cc1OC [Compound 87] | 100 to 250
CCN(CCc1ccc(NC(=O)c2cc(OC)c(OC)cc2NC(=O)c2cc(=O)c3ccccc3o2)cc1)Cc1ccc2c(cnn2CC)c1 [Compound 192] | > 1000
COc1cc(NC(=O)c2cc(=O)c3ccccc3o2)c(C(=O)Nc2ccc(CCN(Cc3cccnc3)Cc3cccc(-c4nc(C)no4)c3)cc2)cc1OC [Compound 203] | 250 to 500
COc1cc(NC(=O)c2cc(=O)c3ccccc3o2)c(C(=O)Nc2ccc(CCN(C)Cc3cccc(-c4nc(C)no4)c3)cc2)cc1OC [Compound 157] | > 1000
COc1cc(NC(=O)c2cc(=O)c3ccccc3o2)c(C(=O)Nc2ccc(CCN(C)Cc3cnc(-n4ccnc4)nc3)cc2)cc1OC [Compound 126] | 500 to 1000
COc1cncc(CN(CCc2ccc(NC(=O)c3cc(OC)c(OC)cc3NC(=O)c3cc(=O)c4ccccc4o3)cc2)Cc2ccc3c(cnn3C(C)=O)c2)c1 [Compound 252] | 250 to 500
COc1ccc(CN(CCc2ccc(NC(=O)c3cc(OC)c(OC)cc3NC(=O)c3cc(=O)c4ccccc4o3)cc2)Cc2cncn2C)cc1OC [Compound 147] | < 100
COc1cc(NC(=O)c2cc(=O)c3ccccc3o2)c(C(=O)Nc2ccc(CCN(Cc3cccnc3)Cc3cnc4cnc(Br)cn34)cc2)cc1OC [Compound 54] | 100 to 250
COC(=O)c1ccc(C(=O)Nc2ccc(CCN(Cc3cccc(-n4ccnc4)c3)Cc3cccc(-n4ccnc4)c3)cc2)c(NC(=O)c2cc(=O)c3ccccc3o2)c1 [Compound 260] | < 100

Same assay, conditions: read-out: CYP3A4 IC50, 37° C. 11 minutes

SMILES | IC50 [nM]
COc1cc2c(cc1OC)CN(CCc1ccc(-n3nnc(-c4cc(OC)c(OC)cc4NC(=O)c4cc(=O)c5ccccc5o4)n3)cc1)CC2.CS(=O)(=O)O.O [encequidar methane sulfonic acid monohydrate] | > 1000

Tested on: not listed separately
Experiment: Oral absorption of docetaxel in mice (plasma pharmacokinetics of oral docetaxel co-dosed with compound)
Assay type: in vivo
Details: CD-1 mice, oral docetaxel 10 mg/kg with oral compound (Compound 16 80 mg/kg, Compound 48 20 mg/kg, encequidar 10 mg/kg); plasma
Method: In vivo activity of the compounds of the present disclosure was performed as follows: Eighteen 7- to 9-week-old CD-1 mice were fasted overnight prior to drug administration while they were allowed free access to water and were fed 4 hours post dosing. Mice were divided into four groups of three to five […] each.
Blood samples (approx. 30-50 μL) were obtained via peripheral veins of each mouse before (0) and 0.25, 0.5, 1, 2, 4, and 8 hours after docetaxel administration for control group (entry 1, Table C) and at 0.25, 0.5, 1, 2, 4, and 8 hours after docetaxel administration for rest of the groups (entries 2-4, Table C). Blood samples were treated with EDTA-K2 as anti-coagulant and placed on ice until centrifugation. Each blood sample was centrifuged at 4° C., 3000 g for 15 min within 0.5 hour from plasma collection. An aliquot of 20 μL plasma sample was protein precipitated with 100 μL IS (Internal Standard) solution (100 ng/mL labetalol+100 ng/mL tolbutamide in acetonitrile, 1:1), the mixture was vortex-mixed and centrifuged at 4000 rpm for 15 min at 4° C. An aliquot of 80 μL sample was transferred to a sample plate and mixed with 80 μL water, then the plate was shook at 800 rpm for 10 min. 1-10 μL of the supernatant was then injected for LC-MS/MS analysis under the following conditions:
MS conditions: ESI, positive;
Column: Waters ACQUITY UPLC BEH C18 2.1×50 mm, 1.7 μm;
Mobile phase A: 0.1% formic acid in water; and
Mobile phase B: 0.1% formic acid in acetonitrile.

SMILES | AUC0-inf of oral docetaxel (area under the curve of plasma concentration) [ng·h/mL] | Cmax of oral docetaxel (maximum plasma concentration) [ng/mL] | Tmax of oral docetaxel (time at the maximum plasma concentration) [min]
COc1cc2c(cc1OC)CN(CCc1ccc(-n3nnc(-c4cc(OC)c(OC)cc4NC(=O)c4cc(=O)c5ccccc5o4)n3)cc1)CC2.CS(=O)(=O)O.O [encequidar methane sulfonic acid monohydrate] | 698 ± 238 | 316 ± 98.1 | 42 ± 16.4

Same assay, conditions: CD-1 mice; as compared to when there was no inhibitor

SMILES | increase in the systemic bioavailability of orally dosed docetaxel [fold]
COc1cc2c(cc1OC)CN(CCc1ccc(-n3nnc(-c4cc(OC)c(OC)cc4NC(=O)c4cc(=O)c5ccccc5o4)n3)cc1)CC2.CS(=O)(=O)O.O [encequidar methane sulfonic acid monohydrate] | 3.4
